Measured values taken from PMC8746705, “Comparison of Experimental Strategies to Study L-Type Amino Acid Transporter 1 (LAT1) Utilization by Ligands” (Molecules, 2021).

Assays:
LAT1 [1] = target: T1, LAT1 (Mus musculus, UniProt Q9Z127); assay: Cis-inhibition of radiolabelled LAT1-probe substrate uptake into BV2 cells; type: cell-based; conditions: for IC50: 5 min, mean ± SD
Method: (§1) After removal of the culture medium, the BV2 cells were carefully washed with pre-warmed HBSS (Hank’s balanced salt solution) containing 125.0 mM choline chloride, 4.8 mM KCl, 1.2 mM MgSO4, 1.2 mM KH2PO4, 1.3 mM CaCl2, 5.6 mM glucose, and 25.0 mM HEPES (pH 7.4 adjusted with 1 M NaOH). Pre-incubation was done with 500 μL of pre-warmed HBSS at 37 °C for 10 min before adding substrates (250 μL in HBSS) for the uptake experiments.
The ability of compounds 1–15 to inhibit the uptake of a known LAT1 substrate [^14C]-L-leucine was then evaluated by incubating the cells at 37 °C for 5 min in uptake buffer pH 7.4 (250 μL) containing 0.2 µCi/mL of [^14C]-L-leucine, or 2 µCi/mL of [^3H]-L-methionine, [^3H]-L-tryptophan or [^3H]-L-kynurenine (PerkinElmer, Waltham, MA, USA) and 0.1–1000 μM of the studied compound (or HBSS as blank). After incubation, the uptake was stopped by adding 250 µL of ice-cold HBSS, and the cells were washed two times with ice-cold HBSS. The cells were then lysed with 500 μL of NaOH (0.1 M) for 60 min and the lysate was mixed with 3.5 mL of Emulsifier safe cocktail (Ultima Gold, PerkinElmer, Waltham, MA, USA). The radioactivity in the cells was measured by liquid scintillation counting (MicroBeta^2 counter, PerkinElmer Waltham, MA, USA). Half of the maximum inhibitory concentration (IC50) values were calculated by nonlinear regression analysis (fitting the curve to log (concentration) vs. remaining normalized […]).

LAT1 [2] = target: T1, LAT1; assay: Inhibition type of [14C]-L-Leu uptake (Hanes-Woolf plots) in BV2 cells; type: cell-based; conditions: for Vmax of [14C]-L-Leu uptake: 0.010–0.20 µM [14C]-L-Leu in the presence of the compound at its IC50, mean ± SD, n = 3–4; for Vmax of [14C]-L-Leu uptake / Inhibition Type: BV2; for Inhibition Type: of [14C]-L-Leu uptake, concluded from Km and Vmax
Method: as §1
To evaluate the inhibition type of studied compounds, the BV2 cells were incubated with 0.010–0.20 μM [^14C]-L-leucine together with the studied compound. The concentration of compounds was selected according to the compound-specific IC50 values. The experiment was then carried out as described for the [^14C]-L-leucine uptake above and the radioactivity was measured by liquid scintillation counting. Hanes-Woolf plots were created by setting the ratio of initial substrate concentration to the reaction velocity ([S]/v) against [^14C]-L-leucine concentration (µM). The linear regression was used to calculate Km value (negative value of x-intercept) and Vmax value (1/slope) for [^14C]-L-leucine.

[3] = Time-dependent cellular uptake of compounds into BV2 cells (LC-MS/MS); type: cell-based, mouse; conditions: mouse, BV2 microglia cells, 100 µM compound, 1–60 min, mean ± SD, n = 3, read-out: T½ of cellular uptake
Method: (§2) For the time-dependent cellular uptake experiments, the BV2 cells on 24-well plates were incubated with studied compounds (100 μM) in a pre-warmed HBSS buffer (250 μL) at 37 °C for 1–60 min. Subsequently, the cells were washed three times with an ice-cold HBSS and lysed with 250 μL of NaOH (0.1 M) for 60 min. The lysates were diluted with acetonitrile (ACN) including the selected internal standard (diclofenac to all compounds) with a ratio of 1:3 and centrifuged at 10,000× g for 10 min. The samples were analyzed by the liquid chromatography-tandem mass spectrometric (LC-MS/MS) methods as described below. The concentrations of each compound in cell lysates were calculated from the standard curve that was prepared by spiking known amounts of compounds to ACN including the selected internal standard and then normalized with protein concentration. The protein concentrations on each plate were determined as a mean of three samples by Bio-Rad Protein Assay, based on the Bradford dye-binding method, using bovine serum albumin (BSA) as a standard protein and measuring the absorbance (595 nm) by multiplate reader (EnVision, Perkin Elmer, Inc., Waltham, MA, USA).
(§3) The studied compounds (1–15) were analyzed by using Agilent 1200 Series Rapid Resolution LC System together with an Agilent 6410 Triple Quadrupole Mass Spectrometer equipped with an electrospray ionization source (Agilent Technologies, Santa Clara, CA, USA). The chromatographic separations of analytes were achieved by using a reversed-phase Zobrax SB-C18 column (50 mm × 2.1 mm, 1.8 μm; Agilent Technologies, Santa Clara, CA, USA) by eluting the samples with 0.1% formic acid in water (A) and 0.1% formic in ACN (B). Labetalol and diclofenac were used as internal standards (ISTD) for the prodrugs and parent drugs, respectively. The transitions used for the quantification at the positive ion mode and chromatographic conditions of each compound and their parent drugs are listed in Table S1. The methods of compounds 1–11 have been reported earlier, while the methods of compounds 12–15 are reported herein for the first time.

[4] = test system: immortalized mouse microglia (BV2); assay: as above; type: cell-based
Method: as §2, §3

LAT1 [5] = target: T1, LAT1; assay: Concentration-dependent cellular uptake into BV2 cells, Eadie–Hofstee analysis, Transport Type 1 (LAT1); type: cell-based; conditions: 1–200 µM, 30 min, BV2; Eadie–Hofstee; mean ± SD, n = 3
Method: (§4) For the concentration-dependent cellular uptake experiments, the BV2 cells on 24-well plates were incubated with studied compounds (1–200 μM) in pre-warmed HBSS buffer (250 μL) at 37 °C for 30 min. The experiment was then carried out as described for the time-dependent uptake above and the concentration of studied compounds in the cell lysate was analyzed by the LC-MS/MS methods described above and the results were normalized to the total protein concentration. The distinct transport mechanisms were separated from the Michaelis-Menten kinetics by using Eadie–Hofstee plot.
as §3

Transport Type 2 = assay: Concentration-dependent cellular uptake into BV2 cells, Eadie–Hofstee analysis, Transport Type 2; type: cell-based, mouse; conditions: 1–200 µM, 30 min, mean ± SD, n = 3
Method: as §4, §3

LAT1 [6] = target: T1, LAT1; assay: Cellular uptake of compounds in the presence of LAT1-inhibitor (KMH-233); type: cell-based; conditions: 100 µM compound, 100 µM KMH-233, 30 min, BV2
Method: The competitive uptake in the presence of LAT1-inhibitor (KMH-233) was carried out as described above with HBSS buffer solution containing 100 µM of the studied compounds. The cells were pre-incubated with 100 µM LAT1-inhibitor for 10 min and the incubation mixture was removed before adding the studied compound and LAT1-inhibitor on the cells. The competitive uptake (30 min) with the inhibitor was then carried out as the normal uptake described above. The amounts of studied compounds were analyzed by the LC-MS method and calculated from the spiked standard curve and normalized with the protein concentrations.

LAT1 [7] = target: T1, LAT1; assay: Cellular uptake of L-leucine after pre-incubation of BV2 cells with the compounds; type: cell-based; conditions: 100 µM (L-glutamine 2 mM) pre-incubated 10 min or 3 h, L-leucine 1–400 µM, 5 min
Method: The ability of compounds 1–15 to affect the uptake of a known LAT1 substrate L-leucine was evaluated by pre-incubating the BV2 cells at 37 °C for 10 min or 3 h with uptake buffer pH 7.4 (250 μL) containing 100 µM of compounds 1–15 or thyroxin (T4), or known nuclear receptor inducible compounds, phenobarbital (constitutive androstane receptor, CAR), and dexamethasone (pregnane X receptor, PXR) as controls. […] After incubation, the reaction was stopped by adding 250 µL of ice-cold HBSS, and the cells were washed two times with ice-cold HBSS. The cells were then lysed with 500 μL of 0.1 M NaOH (60 min) and the lysate was mixed with 3.5 mL of Emulsifier safe cocktail (Ultima Gold, PerkinElmer, Waltham, MA, USA). The radioactivity in the cells was measured by liquid scintillation counting (MicroBeta^2 counter, PerkinElmer Waltham, MA, USA). The results were multiplied by the amount of un-labeled proportion of L-leucine in each sample.

LAT1 [8] = assay: Quantitative expression of LAT1 on the BV2 plasma membrane (LC-MS proteomics); type: cell-based, mouse; conditions: BV2 cells incubated 24 h; normalized to Na+/K+ATPase; compared to untreated control
Method: The protein expression levels of LAT1, in the plasma membrane fractions of BV2 cells were quantified using multiplexed MRM analysis according to the protocol described by Uchida et al.. First, the crude membrane fractions were isolated from three distinct sets of cell culture plates using Membrane Protein Extraction Kit (BioVision Incorporated, Milpitas, CA, USA) according to the manufacturer’s instructions. The protein content for each fraction was measured by Bio-Rad Protein Assay, based on the Bradford dye-binding method (EnVision, Perkin Elmer, Inc., Waltham, MA, USA). A total amount of 50 µg protein from each fraction was solubilized/denatured in 7 M guanidine hydrochloride, 0.5 M Tris-HCl and 10 mM EDTA-Na. The proteins were then reduced by dithiothreitol (1:50, w/w) and S-carboxymethylated by iodoacetamide (1:20, w/w). The alkylated proteins were precipitated by methanol/chloroform/water (4:1:3) and centrifuged at 18,000× g for 5 min at 4 °C. The pellet was resuspended in 6 M urea and mixed for 10 min at room temperature before the dilution with 0.1 M Tris-HCl (pH 8.5) to a final concentration of 1.2 M urea, and dissolved completely by intermittent sonication (Branson 3510, Danbury, CT, USA). The dissolved proteins were first digested with LysC (1/100, w/w) and 0.05% ProteaseMax (Promega Biotech AB, Nacka, Sweden) for 3 h at room temperature. Then, the samples were spiked with 10 µL (30 fmol) of the labelled peptides for absolute quantification (JPT Peptide Technologies GmbH, Berlin, Germany) (Table S2). The samples were incubated with (1/100, w/w) TPCK-Trypsin (Promega Biotech AB, Nacka, Sweden) for 18 h at 37 °C. The tryptic digestion was then quenched by adding 40 µL of 5% formic acid. The samples were then centrifuged at 18,000× g for 5 min at 4 °C, and the supernatants were transferred to vials for analysis.
The digested peptides were analyzed using an ultra-performance liquid chromatography system coupled with a triple quadrupole mass spectrometer with a heated electrospray ionization source in the positive mode (UPLC 1290 and MSD 6495, Agilent Technologies, Santa Clara, CA, USA). A total amount of 20 µL of the digested peptides (10 µg) was separated using AdvanceBio Peptide Map 2.1 × 250 mm, 2.7 μm column (Agilent Technologies, Santa Clara, CA, USA) and LC eluents of 0.1% formic acid in water (A) and acetonitrile (B). The peptides were eluted following a constant flow rate of 0.3 mL/min and a gradient of 2–7% B for 2 min, followed by 7–30% B for 48 min, 30–45% B for 3 min, and 45–80% B for 2.5 min before re-equilibrating the column again for 4.5 min. LAT1 was quantified based on the ratio between the light and heavy standard peptides, as described previously (Table S2). Data was acquired using Agilent MassHunter Workstation Acquisition (Agilent Technologies, Data Acquisition for Triple Quadrupole, version B.03.01) and processed by using Skyline software (version 20.1). The results were normalized to a housekeeping protein Na+/K+ATPase and expressed as fmol/µg of the total amount of protein in the samples.

[9] = probe [3H]-L-Kynu, n = 3–4, read-out: IC50 of [3H]-L-Kynu uptake
[10] = probe [3H]-L-Met, n = 3–4, read-out: IC50 of [3H]-L-Met uptake
[11] = probe [3H]-L-Trp, n = 3–4, read-out: IC50 of [3H]-L-Trp uptake
[12] = 100 µM compound, 1–60 min, mean ± SD, n = 3

T1 sequence (Q9Z127 whole entry): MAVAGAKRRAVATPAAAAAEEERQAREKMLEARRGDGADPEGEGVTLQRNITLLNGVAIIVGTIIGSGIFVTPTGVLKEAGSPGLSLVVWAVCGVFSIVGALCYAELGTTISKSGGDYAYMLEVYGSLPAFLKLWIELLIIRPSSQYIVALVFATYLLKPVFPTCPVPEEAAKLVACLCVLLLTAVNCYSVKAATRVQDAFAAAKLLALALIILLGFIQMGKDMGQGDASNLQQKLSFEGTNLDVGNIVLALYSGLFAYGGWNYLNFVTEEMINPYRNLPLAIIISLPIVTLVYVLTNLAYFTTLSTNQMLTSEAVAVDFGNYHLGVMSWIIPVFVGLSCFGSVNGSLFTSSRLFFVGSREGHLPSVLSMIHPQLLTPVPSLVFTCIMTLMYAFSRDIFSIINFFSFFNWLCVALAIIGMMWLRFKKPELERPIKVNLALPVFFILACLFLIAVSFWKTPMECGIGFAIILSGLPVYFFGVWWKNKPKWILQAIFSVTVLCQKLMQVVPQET
T1 sequence (P10852 whole entry partner): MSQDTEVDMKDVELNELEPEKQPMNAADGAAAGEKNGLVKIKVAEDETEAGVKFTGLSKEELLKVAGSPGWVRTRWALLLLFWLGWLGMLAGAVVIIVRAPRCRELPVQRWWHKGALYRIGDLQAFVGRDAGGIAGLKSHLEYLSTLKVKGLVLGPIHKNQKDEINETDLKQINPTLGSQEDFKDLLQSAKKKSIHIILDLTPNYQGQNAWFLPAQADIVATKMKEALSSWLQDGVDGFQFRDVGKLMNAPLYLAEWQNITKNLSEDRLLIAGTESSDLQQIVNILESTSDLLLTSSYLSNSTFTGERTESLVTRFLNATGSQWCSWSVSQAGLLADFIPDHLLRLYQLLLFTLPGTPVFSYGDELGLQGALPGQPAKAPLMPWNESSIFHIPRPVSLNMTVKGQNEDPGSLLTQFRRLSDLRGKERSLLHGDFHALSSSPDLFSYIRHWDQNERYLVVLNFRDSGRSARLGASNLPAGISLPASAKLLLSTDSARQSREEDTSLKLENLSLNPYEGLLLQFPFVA

Q: Which results are given for `COc1cc(/C=C/C(=O)Nc2cccc(C[C@H](N)C(=O)O)c2)ccc1O` [Compound 6]?
A: Inhibition of LAT1-probe substrate uptake / LAT1 affinity (LAT1 [1]; over all probe substrates): not able to inhibit the LAT1-probe substrate uptake very effectively; IC50 (LAT1 [1]; [9]): 54.3 ± 1.3 µM; IC50 (LAT1 [1]; [10]): > 100 µM; IC50 (LAT1 [1]; [11]): > 100 µM; IC50 (LAT1 [1]; probe [14C]-L-Leu, n = 3–4, read-out: IC50 of [14C]-L-Leu uptake): > 100 µM; Vmax of [14C]-L-Leu uptake (LAT1 [2]): 3.224 ± 0.077 nmol/min/mg; Inhibition Type (LAT1 [2]): Non-competitive; half-life at 100 μM [3]: 9.38 ± 2.33 min; Max. cellular uptake [4, 12]: 1.11 ± 0.09 nmol/mg of protein; Km (LAT1 [5]): 3.6 ± 0.4 µM; Transport Type 1 (LAT1) Vmax (LAT1 [5]): 0.11 ± 0.01 pmol/mg/min; Km (Transport Type 2): 78 ± 16 µM; Transport Type 2 Vmax (Transport Type 2): 0.26 ± 0.02 pmol/mg/min; Cellular uptake in the presence of LAT1-inhibitor (LAT1 [6]): inhibited significantly; Effect on cellular uptake of L-Leu after pre-incubation (LAT1 [7]): induced the uptake of L-Leu

Q: With `NC(=O)CC[C@H](N)C(=O)O` [L-glutamine, reference compound] as the molecule, how does the “Effect on cellular uptake of L-Leu after pre-incubation” value (LAT1 [7]) read?
A: decreased the amount of L-Leu inside the cells

Q: Which IC50 (LAT1 [1]; [9]) does the source give for `CC(C)Cc1ccc([C@H](C)C(=O)Nc2cccc(C[C@H](N)C(=O)O)c2)cc1` [Compound 10] here?
A: 7.7 ± 1.1 µM

Q: And the IC50 (LAT1 [1]; [10])?
A: 9.6 ± 1.6 µM

Q: What about the IC50 (LAT1 [1]; [11]) of the same molecule?
A: 43.4 ± 1.5 µM

Q: And the “Vmax of [14C]-L-Leu uptake” value (LAT1 [2])?
A: 2.151 ± 0.066 nmol/min/mg

Q: And the IC50 (LAT1 [2]; Table 2, compound concentration used in the inhibition type study, corresponding to IC50 of [14C]-L-Leu uptake)?
A: 13 µM

Q: And the “Inhibition Type” value (LAT1 [2])?
A: Mixed type

Q: And the half-life at 100 μM [3]?
A: < 1 min

Q: What about the Max. cellular uptake [4, 12] of the same molecule?
A: 4.14 ± 0.31 nmol/mg of protein

Q: And the “T½ of cellular uptake” value [4, 12]?
A: 0.87 ± 0.55 min

Q: What about the “LAT1-substrate or LAT1-binder” value ([4]; concluded from time-dependent uptake, 100 µM) of the same molecule?
A: LAT1-binders rather than substrates

Q: And the Km (LAT1 [5])?
A: 22 ± 6 µM

Q: And the “Transport Type 1 (LAT1) Vmax” value (LAT1 [5])?
A: 205 ± 41 pmol/mg/min

Q: What about the “Cellular uptake in the presence of LAT1-inhibitor” value (LAT1 [6]) of the same molecule?
A: only reductive trends were seen

Q: Which “LAT1 expression on the plasma membrane” value (LAT1 [8]) does the source give for `C[C@@H]1C[C@H]2[C@@H]3CCC4=CC(=O)C=C[C@]4(C)[C@@]3(F)[C@@H](O)C[C@]2(C)[C@@]1(O)C(=O)CO` [dexamethasone, reference compound] here?
A: did not have any effect on LAT1 expression

Q: With `CCC1(c2ccccc2)C(=O)NC(=O)NC1=O` [phenobarbital, reference compound] as the molecule, how does the “LAT1 expression on the plasma membrane” value (LAT1 [8]) read?
A: did not have any effect on LAT1 expression
